In patent publication US9469650B2, “Melampomagnolide B derivatives” (BOARD OF TRUSTEES OF THE UNIVERSITY OF ARKANSAS, priority 2013, dated 2016):

What was measured:
[1] = tested on: panel of 60 human tumor cell lines; test: panel of 60 human tumor cell lines, whole panel or sub-panel (single concentration screen, summaries); type: cell-based; settings: for inhibition at 10 µM: single concentration of 10^−5 M, read-out: growth inhibition in at least eight human cancer cell lines from the panel; for GI50: range over 6a and 6e
[2] = tested on: HL-60(TB); test: cells; settings: Homo sapiens; for GI50: HL-60; for CC50: HL-60, read-out: LC50; for IC (TGI): HL-60, read-out: TGI
[3] = tested on: AML 052308 cells
From the text: Derivatives were screened for antileukemic activity against AML cells in culture (See FIGS. 1-7).

[4] = tested on: HCT-15; test: panel of 60 human tumor cell lines, growth inhibition (Colon Cancer); settings: for GI50 / CC50 / IC (TGI): Homo sapiens; for GI50 / Percent Growth: HCT-15; for CC50: HCT-15, read-out: LC50; for IC (TGI): HCT-15, read-out: TGI
[5] = tested on: MALME-3M; test: panel of 60 human tumor cell lines, growth inhibition (Melanoma); settings: for GI50 / CC50: Homo sapiens, Malme-3M; for CC50: read-out: LC50; for TGI / Percent Growth: MALME-3M
[6] = tested on: RPMI-8226; test: panel of 60 human tumor cell lines, growth inhibition (Leukemia); settings: for GI50 / CC50: Homo sapiens; for CC50: RPMI-8226, read-out: LC50
[7] = RPMI-8226, Log10 Concentration −4.0
[8] = RPMI-8226, Log10 Concentration −5.0
[9] = RPMI-8226, Log10 Concentration −6.0
[10] = RPMI-8226, Log10 Concentration −7.0
[11] = RPMI-8226, Log10 Concentration −8.0

Row | Structure (SMILES) | inhibition at 10 µM [1] | GI50 [2] | CC50 [2] | IC (TGI) [2] | cytotoxicity compared to MMB [3] | GI50 [4] | CC50 [4] | IC (TGI) [4] | GI50 [5] | CC50 [5] | Percent Growth ([5]; Log10 Concentration −4.0) | Percent Growth ([5]; Log10 Concentration −5.0) | Percent Growth ([5]; Log10 Concentration −6.0) | GI50 ([6]; RPMI-8226) | CC50 [6] | Percent Growth [6, 7] | Percent Growth [6, 8] | Percent Growth [6, 9] | Percent Growth [6, 10] | Percent Growth [6, 11] | other results
1 | C=C1C(=O)O[C@H]2[C@H]1CC/C(COC(=O)OCCCN1CCCCC1)=C\CC[C@@]1(C)O[C@@H]21 [JVM 2-26] | > 60% | 1.88 µM | 98.7 µM | 7.53 µM | more potent than MMB | 2.39 µM | 37 µM | 10.6 µM |  |  |  |  |  |  |  |  |  |  |  |  | fold more cytotoxic than MMB [3]: 3 fold
2 | C=C1C(=O)O[C@H]2[C@H]1CC/C(COC(=O)NCCCCCCO)=C\CC[C@@]1(C)O[C@@H]21 [JVM 2-31] | > 60% | 3.64 µM | > 100 µM | 14.2 µM |  | 2.56 µM | 49.5 µM | 12.1 µM |  |  |  |  |  |  |  |  |  |  |  |  | 
3 | C=C1C(=O)O[C@H]2[C@H]1CC/C(COC(=O)OCCN(C)C)=C\CC[C@@]1(C)O[C@@H]21 [JVM 2-35] | > 60% | 1.77 µM | 87 µM | 6.4 µM |  | 2.78 µM | 44.3 µM | 12.8 µM |  |  |  |  |  |  |  |  |  |  |  |  | 
4 | C=C1C(=O)O[C@H]2[C@H]1CC/C(COC(=O)OC)=C\CC[C@@]1(C)O[C@@H]21 [JVM 2-40] | > 60% | 1.69 µM | 76.3 µM | 7.15 µM |  | 1.96 µM | 28.9 µM | 6.78 µM |  |  |  |  |  |  |  |  |  |  |  |  | 
5 | C=C1C(=O)O[C@H]2[C@H]1CC/C(COC(=O)NCCN1CCOCC1)=C\CC[C@@]1(C)O[C@@H]21 [JVM 57, ((1aR,7aS,10aS,10bS,E)-1a-methyl-8-methylene-9-oxo-1a,2,3,6,7,7a,8,9,10a,10b-decahydrooxireno[2′,3′:9,10]-cyclodeca[1,2-b]furan-5-yl)-methyl(2-morpholinoethyl)carbamate] | > 60% | 3.59 µM | 85.1 µM | 16.1 µM | less active than MMB | 10.5 µM | > 100 µM | 34.4 µM | 6.12 µM | 63.2 µM | −72% | 37% | 97% | 5.72 µM | > 100 µM | −47% | 34% | 99% | 97% | 100% | TGI [5]: 2.19E−5; Percent Growth ([5]; Log10 Concentration −7.0): 91%; Percent Growth ([5]; Log10 Concentration −8.0): 100%; TGI ([6]; RPMI-8226): 2.63E−5
6 | C=C1C(=O)O[C@H]2[C@H]1CC/C(COC(=O)NCCN1CCCC1)=C\CC[C@@]1(C)O[C@@H]21 [JVM 59, ((1aR,7aS,10aS,10bS,E)-1a-methyl-8-methylene-9-oxo-1a,2,3,6,7,7a,8,9,10a,10b-decahydrooxireno[2′,3′:9,10]cyclodeca[1,2-b]furan-5-yl)methyl-(2-(pyrrolidin-1-yl)ethyl)carbamate] | > 60% | 4.15 µM | 70.3 µM | 18.3 µM | almost equal cytotoxicity to MMB | 13.5 µM | 91.2 µM | 35.1 µM | 4.18 µM | 55.2 µM | −74% | 18% | 102% | 8.71 µM | 97.1 µM | −51% | 47% | 97% | 98% | 184% | TGI ([5]; five dose): 1.59E−5; Percent Growth ([5]; Log10 Concentration −7.0): 93%; Percent Growth ([5]; Log10 Concentration −8.0): 91%; TGI ([6]; RPMI-8226, five dose): 3.01E−5
7 | C=C1C(=O)O[C@H]2[C@H]1CC/C(COC(=O)NCCc1ccccn1)=C\CC[C@@]1(C)O[C@@H]21 [JVM 61, ((1aR,7aS,10aS,10bS,E)-1a-methyl-8-methylene-9-oxo-1a,2,3,6,7,7a,8,9,10a,10b-decahydrooxireno[2′,3′:9,10]cyclodeca[1,2-b]furan-5-yl)methyl-(2-(pyridin-2-yl)ethyl)carbamate] | > 60% |  |  |  | almost equal cytotoxicity to MMB | 3.5 µM | 50.1 µM | 15.4 µM | 7.52 µM | 84.9 µM | −57% | 44% | 95% | 8.2 µM | > 100 µM | −32% | 45% | 100% | 100% | 102% | TGI [5]: 2.71E−5; Percent Growth ([5]; Log10 Concentration −7.0): 100%; Percent Growth ([5]; Log10 Concentration −8.0): 114%; TGI ([6]; RPMI-8226): 3.88E−5; Percent Growth ([4]; Log10 Concentration −4.0): −81%; Percent Growth ([4]; Log10 Concentration −5.0): 22%; Percent Growth ([4]; Log10 Concentration −6.0): 89%; Percent Growth ([4]; Log10 Concentration −7.0): 97%; Percent Growth ([4]; Log10 Concentration −8.0): 98%
8 | C=C1C(=O)O[C@H]2[C@H]1CC/C(COC(=O)Nc1n[nH]c(SC)n1)=C\CC[C@@]1(C)O[C@@H]21 [JVM 64, ((1aR,7aS,10aS,10bS,E)-1a-methyl-8-methylene-9-oxo-1a,2,3,6,7,7a,8,9,10a,10b-decahydrooxireno[2′,3′:9,10]cyclodeca[1,2-b]furan-5-yl)methyl-(5-(methylthio)-1H-1,2,4-triazol-3-yl)carbamate] | > 60% |  |  |  | more potent than MMB | 2.4 µM | 38 µM | 9.05 µM | 2.32 µM | 78.8 µM | −54% | −12% | 66% | 2.57 µM | > 100 µM | −46% | −11% | 93% | 100% | 101% | GI50 ([1]; sub-panel breast cancer): 0.57 to 3.07 µM; GI50 ([1]; sub-panel colon cancer): 1.12 to 2.06 µM; GI50 ([1]; sub-panel melanoma): 0.46 to 2.84 µM; GI50 ([1]; sub-panel non-small cell lung cancer): 0.65 to 1.45 µM; GI50 ([1]; sub-panel renal cancer): 0.9 to 2.6 µM; fold more cytotoxic than MMB [3]: 3 fold; Percent Growth ([5]; Log10 Concentration −7.0): 99%; Percent Growth ([5]; Log10 Concentration −8.0): 104%; TGI ([5]; NCI five dose): 7.53E−6; TGI ([6]; RPMI-8226, NCI five dose): 7.79E−6
9 | C=C1C(=O)O[C@H]2[C@H]1CC/C(COC(=O)CCC(=O)NCc1ccc(Cl)nc1)=C\CC[C@@]1(C)O[C@@H]21 [JVM 96] | > 60% | 2.12 µM | > 100 µM | 8.75 µM |  | 3.43 µM | 43.1 µM | 14.2 µM |  |  |  |  |  | 4.16 µM | > 100 µM | −48% | 23% | 94% | 107% | 106% | TGI ([6]; RPMI-8226): 2.09E−5; Percent Growth ([4]; Log10 Concentration −4.0): −88%; Percent Growth ([4]; Log10 Concentration −5.0): 16%; Percent Growth ([4]; Log10 Concentration −6.0): 8.9%; Percent Growth ([4]; Log10 Concentration −7.0): 93%; Percent Growth ([4]; Log10 Concentration −8.0): 93%
